Data from patent US8501777B2, “3,5-disubstituted phenyl-piperidines as modulators of dopamine neurotransmission” (NSAB, Filial AF Neurosearch Sweden AB, Sverige, priority 2005, dated 2013).
Where a name gives a salt, the structure may show the parent alone. Read-outs that look alike come from different tables or passages of the source.

Experiments:
[1] = test system: rats pretreated with d-amphetamine; assay: Reduction of amphetamine-induced hyper-locomotion; format: in vivo, rat; conditions: read-out: ED50 amf (reduction of amphetamine-induced hyper-locomotion, estimated ED50 values)
Protocol: In this model, dopaminergic neurotransmission is increased by systemic administration of d-amphetamine at a dose that is sufficiently high to produce a large increase in locomotor activity. The ability of a compound to antagonize this hyperactivity reflects anti-dopaminergic properties, which are part of the dopaminergic stabiliser profile.
Behavioural activity was measured using eight Digiscan activity monitors (RXYZM (16) TAO, Omnitech Electronics, Columbus, Ohio, USA), connected to an Omnitech Digiscan analyzer and a Apple Macintosh computer equipped with a digital interface board (NB DIO-24, National Instruments, USA). Each activity monitor consisted of a quadratic metal frame (W×L 40×40 cm) equipped with photobeam sensors. During measurements of behavioural activity, a rat was put in a transparent acrylic cage (W×L×H, 40×40×30 cm) which in turn was placed in the activity monitor. Each activity monitor was equipped with three rows of infrared photobeam sensors, each row consisting of 16 sensors. Two rows were placed along the front and the side of the floor of the cage, at a 90° angle, and the third row was placed 10 cm above the floor to measure vertical activity. Photobeam sensors were spaced 2.5 cm apart. Each activity monitor was fitted in an identical sound and light attenuating box containing a weak house light and a fan.
Behavioural data from each activity monitor, representing the position (horizontal centre of gravity and vertical activity) of the animal at each time, were recorded at a sampling frequency of 25 Hz and collected using a custom written LABView™ application. The data from each recording session were stored and analyzed with respect to distance traveled. Each behavioural recording session lasted 60 min, starting approximately 4 min after the injection of test compound. […] The results are presented as counts/60 minutes, or counts/30 minutes, in arbitrary length units. Statistical comparisons were carried out using student's t-test vs the control group.
For most compounds, the evaluation is based on 16 amphetamine pre-treated animals over the dose range 0, 11, 33 and 100 μmol/kg s.c. in one single experiment, with complementary doses in separate experiments. Calculations are based on distance during the last 45 minutes of one hour of measurement. […] To estimate confidence levels for the parameters, the fit is repeated 100 times with a random evenly distributed squared weight (0 to 1) for every measurement value.

hERG ion channel = hERG ion channel (Homo sapiens, UniProt Q12809); assay: hERG affinity by Rapid ICE automated patch-clamp (HEK293 cells stably transfected with HERG cDNA)
Sequence of hERG ion channel (Q12809 whole entry): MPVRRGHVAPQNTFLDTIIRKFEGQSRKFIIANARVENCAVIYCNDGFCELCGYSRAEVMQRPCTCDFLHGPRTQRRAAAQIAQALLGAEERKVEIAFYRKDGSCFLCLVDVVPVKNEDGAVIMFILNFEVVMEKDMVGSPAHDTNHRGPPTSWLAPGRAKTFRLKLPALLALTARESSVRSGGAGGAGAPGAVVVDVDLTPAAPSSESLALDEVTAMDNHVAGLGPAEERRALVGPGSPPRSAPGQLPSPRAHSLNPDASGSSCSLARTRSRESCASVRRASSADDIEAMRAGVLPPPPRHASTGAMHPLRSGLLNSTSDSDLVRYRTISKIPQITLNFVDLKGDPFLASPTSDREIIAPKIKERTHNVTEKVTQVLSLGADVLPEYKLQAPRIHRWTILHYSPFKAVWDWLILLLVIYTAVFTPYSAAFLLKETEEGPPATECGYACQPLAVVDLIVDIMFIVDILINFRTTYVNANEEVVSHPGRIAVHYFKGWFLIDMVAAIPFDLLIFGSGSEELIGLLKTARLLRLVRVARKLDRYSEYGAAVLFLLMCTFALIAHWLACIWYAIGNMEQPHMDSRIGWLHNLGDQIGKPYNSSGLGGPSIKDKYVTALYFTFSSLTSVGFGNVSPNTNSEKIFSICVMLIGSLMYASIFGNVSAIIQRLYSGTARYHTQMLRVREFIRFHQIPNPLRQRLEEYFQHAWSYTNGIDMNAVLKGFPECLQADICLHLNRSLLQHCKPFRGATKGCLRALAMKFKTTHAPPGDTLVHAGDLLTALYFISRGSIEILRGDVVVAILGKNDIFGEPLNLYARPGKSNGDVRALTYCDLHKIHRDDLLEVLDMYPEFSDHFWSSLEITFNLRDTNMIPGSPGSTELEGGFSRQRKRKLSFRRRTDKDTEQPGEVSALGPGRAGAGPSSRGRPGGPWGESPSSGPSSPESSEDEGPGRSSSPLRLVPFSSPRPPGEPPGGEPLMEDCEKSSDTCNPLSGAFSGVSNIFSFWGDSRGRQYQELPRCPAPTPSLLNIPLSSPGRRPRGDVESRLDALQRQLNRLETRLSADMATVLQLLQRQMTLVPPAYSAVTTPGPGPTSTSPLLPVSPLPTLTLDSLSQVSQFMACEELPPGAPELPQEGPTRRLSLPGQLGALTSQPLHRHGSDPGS
From the text: Rapid ICE™ (Rapid Ion Channel Electrophysiology) is an automated patch-clamp assay utilising the PatchXpress 7000A system (Axon Instruments). Rapid ICE™ assesses the effect of test substances on HERG tail current recorded from HEK293 cells stably transfected with HERG cDNA.
HERG.T.HEK (HEK293 cells stably transfected with HERG cDNA) were obtained from the University of Wisconsin. These cells are held in cryogenic storage at Quintiles and also maintained in culture. The cells are continuously maintained in and passaged using minimum essential medium supplemented with 10% foetal bovine serum, 1% non-essential amino acids, 1% sodium pyruvate and 0.4 mg/ml geneticin. For use in Rapid ICE™ studies, 4 ml of the cells are placed into falcon tubes at a density of 2.5×10^5/ml. The falcon tubes are stored in a humidified, gassed (5% CO2) incubator at 37° C. and cells are used within 2.5 h of storage. Just prior to experimentation, these cells are centrifuged at 1000 rpm for 1 min, the supernatant decanted and the cells re-suspended in 150 μl of bath solution in a 1.5 ml eppendorf tube.
The PatchXpress system is primed with appropriate extracellular (bath) and intracellular (pipette) solutions prior to conducting a study. A 16 well sealchip (Sealchip16, Aviva Bio-sciences Corp) is loaded into the system and primed before preparing cells in the bath solution suspension. The cell eppendorf is placed into the designated position and the procedure commences with the trituration and dispersion of cells into each well (recording chamber) of the sealchip. The PatchXpress system follows the general principles of conventional whole-cell patch-clamping: a high resistance seal is formed between the patch electrode and an individual cell, the membrane across the electrode tip is ruptured and the whole-cell patch-clamp configuration is established. If the quality of the cell is judged to be poor, the experiment may be terminated at this point and if necessary, the process repeated on another sealchip.
Once a stable patch has been achieved, recording commences in voltage-clamp mode, with the cell initially clamped at −80 mV. The standard voltage profile is as follows: step from −80 mV to −50 mV for 200 ms, +20 mV for 4.8 s, step to −50 mV for 5 s then step to the holding potential of −80 mV. The step from −80 mV to the test command (+20 mV) results in an outward current (i.e. current flows out of the cell) and the step from the test command (+20 mV) to −50 mV results in the tail current (the tail current represents deactivation of the current over time). […] Each value represents the average current recorded from 4 sequential voltage pulses. For each cell the effects of the test substance is determined by calculating the residual current (% control) compared with vehicle pre-treatment. […]

[2] = Metabolic stability in rat liver microsomes; format: in vitro ADME; conditions: 15 min incubation at 37° C., NADPH
Protocol: Rat liver microsomes were isolated as described by Forlin (1980) Effects of Clophen A50, 3-methylcholantrene, pregnenolone-16aq-carbonitrile and Phenobarbital on the hepatic microsomal cytochrome P-450-dependent monooxygenaser system in rainbow trout, salmo garirdneri, of different age and sex. Tox Appl Pharm. […]
1 μL of, 0.2 or 1 mM test substance diluted in water and 10 μL 20 mg/mL rat liver micro-some were mixed with 149 μL 37° C. buffer 1 and the reaction was started by addition of 40 μL 4.1 mg/mL NADPH. […] The test compound was analysed using HPLC-MS (Hewlett-Packard 1100MSD Series) with a Zorbax SB-C18 column (2.1*150 mm, 5 μm) using 0.03% formic acid and acetonitrile as mobile phase (gradient) or a Zorbax Eclipse XDB-C18 (3*75 mm, 3.5 μm) using 0.03% acetic acid and acetonitrile as mobile phase (gradient). The 15 min turnover was calculated as the fraction of test compound eliminated after 15 minutes, expressed in percent of 0 min levels, ie 100*[conc test compound at 0 min−concentration at 15 min]/conc at 0 min.

[3] = test system: 3,4 dihydroxyphenylacetic acid (DOPAC) in striatum; assay: In vivo neurochemistry: DOPAC in striatum; conditions: rat, 100 μmol/kg s.c.
From the text: After the behavioural activity sessions, the rats were decapitated and their brains rapidly taken out and put on an ice-cold petri-dish. The limbic forebrain, the striatum, the frontal cortex and the remaining hemispheral parts of each rat were dissected and frozen. Each brain part was subsequently analyzed with respect to its content of monoamines and their metabolites.
The monoamine transmitter substances (NA (noradrenaline), DA (dopamine), 5-HT (serotonin)) as well as their amine (NM (normethanephrine), 3-MT (3-methoxytyramine)) and acid (DOPAC (3,4-dihydroxyphenylacetic acid), 5-HIAA (5-hydroxyindoleacetic acid), HVA (homovanillic acid)) metabolites are quantified in brain tissue homogenates by HPLC separations and electrochemical detection.
The analytical method is based on two chromatographic separations dedicated for amines or acids. Two chromatographic systems share a common auto injector with a 10-port valve and two sample loops for simultaneous injection on the two systems. Both systems are equipped with a reverse phase column (Luna C18(2), dp 3μ, 50*2 mm i.d., Phenomenex) and electrochemical detection is accomplished at two potentials on glassy carbon electrodes (MF-1000, Bioanalytical Systems, Inc.). Via a T-connection the column effluent is passed to the detection cell or to waste. […]

MK-801 pre-treated rats = assay: Locomotor activity in MK-801 pre-treated rats; format: in vivo, rat; conditions: MK-801 0.7 mg/kg i.p. 90 min before test compound, recorded 30-60 min after administration
Protocol: Another animal model of antipsychotic activity is based on administration of the glutamate antagonist MK-801. Glutamate antagonists (i.e. NMDA antagonists), can induce psychoses in man (see Psychopharmacology, 4th Generation of progress Chapter 101, p. 1205 and 1207) and induce behavioural aberrations in animals. […] In this study the NMDA antagonist MK-801 (0.7 mg/kg i.p.) was used to create a hypoglutamatergic state where the rats display abnormal, hyperactive behaviour. Compounds in the present invention dose-dependently reverse the behavioural aberration induced by MK-801 (see Table 2).
Behavioural activity was measured using eight Digiscan activity monitors (RXYZM (16) TAO, Omnitech Electronics, Columbus, Ohio, USA), connected to an Omnitech Digiscan analyzer and a Apple Macintosh computer equipped with a digital interface board (NB DIO-24, National Instruments, USA). Each activity monitor consisted of a quadratic metal frame (W×L 40×40 cm) equipped with photobeam sensors. […]
Behavioural data from each activity monitor, representing the position (horizontal centre of gravity and vertical activity) of the animal at each time, were recorded at a sampling frequency of 25 Hz and collected using a custom written LABView™ application. The data from each recording session were stored and analyzed with respect to distance traveled. […]

[4] = Oral bioavailability in rat; format: in vivo; conditions: plasma, oral 12.5 μmol/kg vs i.v. 5 μmol/kg, AUC ratio
Protocol: Experiments are performed 24 hours after implantation of arterial and venous catheters. Test compound is administered orally at 12.5 μmol/kg or intravenously at 5 μmol/kg using the venous catheters, n=3 per group. Arterial blood samples are then taken during […] at 0, 3, 9, 27, 60, 120, 180, 240, 300 and, 360 minutes after administration of the test compound. The oral bioavailability was calculated as the ratio of the AUC (Area under curve) obtained after oral administration over the AUC obtained after intravenous administration for each rat. The parameter AUC was calculated according to the following: AUC: the area under the plasma concentration versus time curve from time zero to the last concentration measured (Clast), calculated by the log/linear trapezoidal method.
The levels of test compound are measured by means of liquid chromatography-mass spectrometry (LC-MS). (Hewlett-Packard 1100MSD Series). The module include a quaternary pump system, vacuum degasser, thermostatted autosampler, thermostatted column compartment, diode array detector and API-ES spray chamber. […]
Extractions procedure: Plasma samples (0.25-0.5 ml) were diluted with water to 1 ml, and 60 pmol (100 μl) internal standard (−)-OSU6241 was added. […] The selective ion (MH^+) was monitored for each Example, and MH^+ 296 for (−)-OSU6241 ((3-[3-(ethylsulfonyl)phenyl]-1-propylpiperidine). […]

[5] = rat, test compound s.c., d-amphetamine 1.5 mg/kg i.p., distance during last 45 min of one hour

## CCCN1CCC(c2cccc(S(C)(=O)=O)c2)CC1
[1]; Rattus norvegicus
  ED50: 52 µmol/kg

## CCCN1CCC(c2cc(F)cc(S(C)(=O)=O)c2)CC1 (as salt: hydrochloric acid salt) [Example 1, 4-[3-fluoro-5-(methylsulfonyl)phenyl]-1-propylpiperidine]
other
  melting point: 187 to 189 °C

## CCN1CCC(c2cc(F)cc(S(C)(=O)=O)c2)CC1 (as salt: hydrochloric acid salt) [Example 2, 1-ethyl-4-[3-fluoro-5-(methylsulfonyl)phenyl]piperidine]
other
  melting point: 176 to 178 °C

## CCCN1CCC(c2cc(F)cc(S(C)(=O)=O)c2)CC1 [Example 1, 4-[3-fluoro-5-(methylsulfonyl)phenyl]-1-propylpiperidine]
hERG ion channel
  IC50: 9.8 µM
[2]
  Turnover at 15 minutes in rat liver microsomes: 5%
[3]
  DOPAC in striatum: 318 % of control
MK-801 pre-treated rats
  Locomotor activity, MK + example 100 μmol/kg: 20858 ± 4638 (P = 0.01) counts/30 min ± SEM
[1]; [5]
  ED50: 12 µmol/kg

## CCN1CCC(c2cc(F)cc(S(C)(=O)=O)c2)CC1 [Example 2, 1-ethyl-4-[3-fluoro-5-(methylsulfonyl)phenyl]piperidine]
hERG ion channel
  IC50: 21.7 µM
[2]
  Turnover at 15 minutes in rat liver microsomes: 0%
[4]
  bioavailability: ~85%
[3]
  DOPAC in striatum: 292 % of control
MK-801 pre-treated rats
  Locomotor activity, MK + example 100 μmol/kg: 24012 ± 5511 (P = 0.03) counts/30 min ± SEM
[1]; [5]
  ED50: 28 µmol/kg

## CCCN1CCC(c2ccc(Cl)c(C(F)(F)F)c2)CC1 [reference compound]
hERG ion channel
  IC50: 0.61 µM
[1]; Rattus norvegicus
  ED50: 34 µmol/kg

## CCCN1CCC(c2cc(F)cc(C(F)(F)F)c2)CC1 [reference compound]
hERG ion channel
  IC50: 1.5 µM
[1]; [5]
  ED50: 14 µmol/kg
